# Data published in PubChem BioAssay (NCI).
# “And” between values parts separate entries of the source, which are not always exact repeats. Equal values may be shown once.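 These data come from cells grown in 96-well plates and exposed to compound for 48 hours at five concentrations. GI50: concentration for 50% inhibition of growth. TGI is the concentration that stops growth completely.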
# What was measured:
# Experiment in all cases: NCI tumour cell line growth inhibition, 48 h
# HOP-18 NSCLC = test system: HOP-18 NSCLC
# SNB-78 CNS = test system: SNB-78 CNS
# XF 498 CNS = test system: XF 498 CNS
# DMS 114 small cell lung = test system: DMS 114 small cell lung
# KM20L2 colon = test system: KM20L2 colon
# LXFL 529 NSCLC = test system: LXFL 529 NSCLC
# DMS 273 small cell lung = test system: DMS 273 small cell lung
# MDA-N = test system: MDA-N
# P388/ADR leukemia = test system: P388/ADR leukemia
# RXF-631 renal = test system: RXF-631 renal
# SN12K1 renal = test system: SN12K1 renal
compound,measurement,setting,value
CCCCCCCCCCCCCCC(C)CCC(=O)O (stereo not given),TGI,HOP-18 NSCLC,> 100 µM
same,TGI,SNB-78 CNS,> 100 µM
same,TGI,XF 498 CNS,> 100 µM
CN(C)c1ccc(O[Si](Oc2ccc(N(C)C)cc2)(Oc2ccc(N(C)C)cc2)Oc2ccc(N(C)C)cc2)cc1,TGI,DMS 114 small cell lung,> 100 µM
same,TGI,HOP-18 NSCLC,> 100 µM
same,TGI,KM20L2 colon,> 100 µM
same,TGI,LXFL 529 NSCLC,> 100 µM
same,TGI,XF 498 CNS,> 100 µM
Nc1nc(=S)c2[nH]cnc2[nH]1,TGI,DMS 114 small cell lung,36.3 µM
same,TGI,DMS 273 small cell lung,39.1 µM
same,TGI,HOP-18 NSCLC,139 µM
same,TGI,KM20L2 colon,67.4 µM
same,TGI,LXFL 529 NSCLC,233 µM
same,GI50,MDA-N,0.541 µM and 1.24 µM
same,TGI,P388/ADR leukemia,12.9 µM
same,TGI,RXF-631 renal,113 µM
same,TGI,SN12K1 renal,11.2 µM
same,TGI,SNB-78 CNS,172 µM
same,TGI,XF 498 CNS,8.35 µM
c1ccc2c3c([nH]c2c1)C1C2CCCCN2C(c2ccncc2)N1CC3 (stereo not given),TGI,DMS 114 small cell lung,83.5 µM
same,TGI,DMS 273 small cell lung,> 100 µM
same,TGI,KM20L2 colon,67.1 µM
same,TGI,LXFL 529 NSCLC,> 100 µM
same,TGI,SNB-78 CNS,> 100 µM
same,TGI,XF 498 CNS,98 µM
COc1ccc2c(c1)[n+](=O)c(C(C)=O)c(C)n2[O-],TGI,DMS 114 small cell lung,> 100 µM
same,TGI,HOP-18 NSCLC,> 100 µM
same,TGI,LXFL 529 NSCLC,> 100 µM
same,TGI,SNB-78 CNS,> 100 µM
same,TGI,XF 498 CNS,> 100 µM
CN(C)c1ccc(N=C2C=CC(=C(C#N)C#N)c3ccccc32)cc1,TGI,DMS 114 small cell lung,0.666 µM
same,TGI,DMS 273 small cell lung,12.6 µM
same,TGI,HOP-18 NSCLC,16.3 µM
same,TGI,MDA-N,0.441 µM
same,TGI,SNB-78 CNS,16.7 µM
same,TGI,XF 498 CNS,1.65 µM
[Cl-].[Gd+3].[O-]/N=C(\c1ccccc1)c1ccccn1.[O-]/N=C(\c1ccccc1)c1ccccn1.[O-]/N=C(\c1ccccc1)c1ccccn1,GI50,DMS 114 small cell lung,36.8 µM
same,TGI,DMS 114 small cell lung,> 100 µM
same,GI50,DMS 273 small cell lung,43.8 µM
same,TGI,DMS 273 small cell lung,> 100 µM
same,GI50,KM20L2 colon,39.7 µM
same,TGI,KM20L2 colon,> 100 µM
same,GI50,LXFL 529 NSCLC,50.1 µM
same,TGI,LXFL 529 NSCLC,> 100 µM
CC(=O)[O-].[Mn+3].[O-]c1ccc(Cl)cc1C=NCCN=Cc1cc(Cl)ccc1[O-],GI50,DMS 114 small cell lung,> 100 µM
same,TGI,DMS 114 small cell lung,> 100 µM
same,GI50,DMS 273 small cell lung,> 100 µM
same,TGI,DMS 273 small cell lung,> 100 µM
same,GI50,HOP-18 NSCLC,51.9 µM
same,TGI,HOP-18 NSCLC,> 100 µM
same,GI50,LXFL 529 NSCLC,> 100 µM
same,TGI,LXFL 529 NSCLC,> 100 µM
same,GI50,SNB-78 CNS,> 100 µM
same,TGI,SNB-78 CNS,> 100 µM
Cc1nc(-n2nc(-c3ccccc3)cc2-c2ccccc2)sc1C(=O)/C=C/c1ccccc1,TGI,DMS 273 small cell lung,> 100 µM
same,TGI,HOP-18 NSCLC,> 100 µM
same,TGI,KM20L2 colon,> 100 µM
same,TGI,RXF-631 renal,> 100 µM
same,TGI,SNB-78 CNS,> 100 µM
NNC(=O)N/N=C1\CN(c2ccc(Cl)cc2Cl)C(=O)C(=O)C1c1nc2ccccc2o1 (stereo not given),TGI,DMS 114 small cell lung,> 100 µM
same,TGI,DMS 273 small cell lung,> 100 µM
same,TGI,KM20L2 colon,> 100 µM
same,TGI,LXFL 529 NSCLC,> 100 µM
same,TGI,RXF-631 renal,> 100 µM
same,TGI,SNB-78 CNS,> 100 µM
same,TGI,XF 498 CNS,> 100 µM
O=C1CNN=C(Cn2nc(-c3ccccc3)c3ccccc3c2=O)N1,TGI,DMS 114 small cell lung,> 100 µM
same,TGI,DMS 273 small cell lung,> 100 µM
same,TGI,HOP-18 NSCLC,> 100 µM
same,TGI,LXFL 529 NSCLC,> 100 µM
same,TGI,SNB-78 CNS,> 100 µM
COc1ccc(-c2cc(-c3ccco3)c(C#N)c(=O)[nH]2)cc1,TGI,DMS 114 small cell lung,> 100 µM
same,TGI,DMS 273 small cell lung,> 100 µM
same,TGI,HOP-18 NSCLC,74.8 µM
same,TGI,KM20L2 colon,> 100 µM
same,TGI,LXFL 529 NSCLC,> 100 µM
same,TGI,RXF-631 renal,> 100 µM
same,TGI,SNB-78 CNS,> 100 µM
COC(=O)c1sc(=NC(=S)N2CCCCC2)sc1C(=O)OC,TGI,DMS 114 small cell lung,> 100 µM
same,TGI,DMS 273 small cell lung,> 100 µM
same,TGI,HOP-18 NSCLC,> 100 µM
same,TGI,KM20L2 colon,> 100 µM
same,TGI,LXFL 529 NSCLC,> 100 µM
same,TGI,RXF-631 renal,> 100 µM
same,TGI,SNB-78 CNS,> 100 µM
Nc1ccc(C(=O)/C=C/c2ccccc2O)cc1,TGI,KM20L2 colon,> 100 µM
same,TGI,LXFL 529 NSCLC,> 100 µM
same,TGI,RXF-631 renal,> 100 µM
same,TGI,SNB-78 CNS,> 100 µM
same,TGI,XF 498 CNS,> 100 µM
